Here are results for 3 molecules from publication PMC7339168 (Journal of Cellular and Molecular Medicine, 2020).

The target in test [1] is T1, JAK3 (Homo sapiens, UniProt P52333).
T1 sequence (P52333 1-1124): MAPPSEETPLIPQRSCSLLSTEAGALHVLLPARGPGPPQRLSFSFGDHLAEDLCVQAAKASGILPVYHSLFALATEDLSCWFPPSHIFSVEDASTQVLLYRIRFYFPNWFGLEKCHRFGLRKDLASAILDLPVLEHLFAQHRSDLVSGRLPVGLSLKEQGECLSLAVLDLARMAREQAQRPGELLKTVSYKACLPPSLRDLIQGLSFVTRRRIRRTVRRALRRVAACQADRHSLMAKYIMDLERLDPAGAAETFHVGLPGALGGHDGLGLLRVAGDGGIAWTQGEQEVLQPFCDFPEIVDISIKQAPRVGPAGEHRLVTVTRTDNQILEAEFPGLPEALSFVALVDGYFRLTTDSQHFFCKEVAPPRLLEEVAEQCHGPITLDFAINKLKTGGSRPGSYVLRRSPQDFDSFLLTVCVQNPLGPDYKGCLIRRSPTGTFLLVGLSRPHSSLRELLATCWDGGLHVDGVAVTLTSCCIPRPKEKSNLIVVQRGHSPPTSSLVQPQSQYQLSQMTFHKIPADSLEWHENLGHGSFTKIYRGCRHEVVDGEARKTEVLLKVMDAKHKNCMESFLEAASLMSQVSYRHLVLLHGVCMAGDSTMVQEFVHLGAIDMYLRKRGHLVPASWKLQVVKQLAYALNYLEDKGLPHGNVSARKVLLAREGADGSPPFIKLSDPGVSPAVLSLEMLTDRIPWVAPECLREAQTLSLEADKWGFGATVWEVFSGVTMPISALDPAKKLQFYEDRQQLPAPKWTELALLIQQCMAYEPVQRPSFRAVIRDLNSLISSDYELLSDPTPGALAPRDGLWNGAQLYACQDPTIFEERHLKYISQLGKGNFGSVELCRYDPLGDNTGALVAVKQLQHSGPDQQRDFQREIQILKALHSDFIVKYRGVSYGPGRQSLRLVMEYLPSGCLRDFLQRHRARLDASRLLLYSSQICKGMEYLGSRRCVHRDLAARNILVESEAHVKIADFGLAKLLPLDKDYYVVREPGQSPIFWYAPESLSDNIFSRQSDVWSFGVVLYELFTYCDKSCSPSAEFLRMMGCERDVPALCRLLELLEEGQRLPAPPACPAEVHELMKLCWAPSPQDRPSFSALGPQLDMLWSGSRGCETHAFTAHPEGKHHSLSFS

In test [2] the target is T1, JAK3. As to the kind of experiment: KinaseProfiler kinase assay, positive control. The class given is biochemical.
The target of test [3] is TYK2 (Homo sapiens, UniProt P29597). As to the kind of experiment: radiometric KinaseProfiler kinase assay, […] ATP. The class given is biochemical.
TYK2, sequence (P29597 whole entry): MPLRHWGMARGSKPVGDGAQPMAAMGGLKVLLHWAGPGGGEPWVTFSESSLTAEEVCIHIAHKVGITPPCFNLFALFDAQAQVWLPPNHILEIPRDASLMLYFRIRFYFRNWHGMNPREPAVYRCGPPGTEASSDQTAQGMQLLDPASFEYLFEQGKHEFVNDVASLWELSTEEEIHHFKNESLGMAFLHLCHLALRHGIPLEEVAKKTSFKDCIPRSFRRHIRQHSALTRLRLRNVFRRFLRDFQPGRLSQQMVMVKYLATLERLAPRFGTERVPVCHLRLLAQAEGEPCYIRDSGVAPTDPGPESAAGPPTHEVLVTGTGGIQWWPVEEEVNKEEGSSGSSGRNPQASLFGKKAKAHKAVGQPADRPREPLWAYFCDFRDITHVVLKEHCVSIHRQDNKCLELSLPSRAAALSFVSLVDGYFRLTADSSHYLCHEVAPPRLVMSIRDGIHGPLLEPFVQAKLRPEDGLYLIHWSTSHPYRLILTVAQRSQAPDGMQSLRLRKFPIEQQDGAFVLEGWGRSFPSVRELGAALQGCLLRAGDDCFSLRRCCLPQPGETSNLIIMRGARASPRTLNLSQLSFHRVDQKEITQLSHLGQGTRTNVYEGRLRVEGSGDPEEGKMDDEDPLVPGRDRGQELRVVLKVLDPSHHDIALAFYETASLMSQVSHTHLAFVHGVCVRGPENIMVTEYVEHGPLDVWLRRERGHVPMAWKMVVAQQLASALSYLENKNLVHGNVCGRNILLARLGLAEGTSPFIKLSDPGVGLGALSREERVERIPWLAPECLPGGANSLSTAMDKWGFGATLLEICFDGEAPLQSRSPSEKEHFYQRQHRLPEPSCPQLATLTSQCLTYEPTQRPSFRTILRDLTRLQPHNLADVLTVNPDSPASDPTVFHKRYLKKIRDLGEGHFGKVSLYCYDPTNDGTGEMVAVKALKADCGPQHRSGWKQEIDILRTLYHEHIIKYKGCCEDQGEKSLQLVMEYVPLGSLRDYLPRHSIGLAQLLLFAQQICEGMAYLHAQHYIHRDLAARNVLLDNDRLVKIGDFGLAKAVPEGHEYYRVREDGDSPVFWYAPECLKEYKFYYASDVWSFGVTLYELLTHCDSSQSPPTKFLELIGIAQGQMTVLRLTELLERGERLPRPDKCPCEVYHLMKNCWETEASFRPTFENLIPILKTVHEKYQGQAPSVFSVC
Test [4] has as its target T1, JAK3. In words: radiometric KinaseProfiler assay with ATP titration (Ki; IC50 […]); also JAK3 immunoprecipitate kinase assay. It is filed as biochemical.
For test [5], the target named is JAK2 (Homo sapiens, UniProt O60674). In words: radiometric KinaseProfiler kinase assay, […] ATP. It is filed as biochemical.
JAK2, sequence (O60674 whole entry): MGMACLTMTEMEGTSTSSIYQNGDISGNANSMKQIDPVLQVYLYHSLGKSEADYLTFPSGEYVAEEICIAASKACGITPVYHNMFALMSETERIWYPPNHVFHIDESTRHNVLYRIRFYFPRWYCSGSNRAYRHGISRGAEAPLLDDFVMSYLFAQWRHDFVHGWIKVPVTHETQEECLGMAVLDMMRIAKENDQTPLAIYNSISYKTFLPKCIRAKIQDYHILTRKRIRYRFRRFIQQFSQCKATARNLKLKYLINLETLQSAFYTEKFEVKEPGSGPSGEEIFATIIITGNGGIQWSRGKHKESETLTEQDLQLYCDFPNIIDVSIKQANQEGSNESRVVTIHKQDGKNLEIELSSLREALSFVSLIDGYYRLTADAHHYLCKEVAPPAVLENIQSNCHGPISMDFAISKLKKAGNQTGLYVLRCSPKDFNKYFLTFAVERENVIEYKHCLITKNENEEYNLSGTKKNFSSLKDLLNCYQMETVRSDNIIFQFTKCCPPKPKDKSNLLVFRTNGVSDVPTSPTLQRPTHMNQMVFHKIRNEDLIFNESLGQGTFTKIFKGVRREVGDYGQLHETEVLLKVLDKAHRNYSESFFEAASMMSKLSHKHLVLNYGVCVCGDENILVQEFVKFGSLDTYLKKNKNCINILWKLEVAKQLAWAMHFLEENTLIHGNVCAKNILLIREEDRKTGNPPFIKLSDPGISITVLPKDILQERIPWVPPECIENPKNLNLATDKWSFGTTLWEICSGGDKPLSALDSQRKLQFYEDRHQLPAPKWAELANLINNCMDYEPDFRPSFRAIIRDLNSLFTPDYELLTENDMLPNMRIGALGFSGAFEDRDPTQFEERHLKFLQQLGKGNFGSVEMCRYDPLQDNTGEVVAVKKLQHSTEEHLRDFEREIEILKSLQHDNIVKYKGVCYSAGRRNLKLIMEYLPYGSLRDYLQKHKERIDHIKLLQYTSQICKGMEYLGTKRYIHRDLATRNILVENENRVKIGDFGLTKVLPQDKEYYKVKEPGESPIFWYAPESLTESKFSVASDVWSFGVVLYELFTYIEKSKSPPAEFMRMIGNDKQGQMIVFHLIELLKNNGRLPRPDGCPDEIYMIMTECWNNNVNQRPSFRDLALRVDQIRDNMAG
In test [6] the target is JAK1 (Homo sapiens, UniProt P23458). As to the kind of experiment: radiometric KinaseProfiler kinase assay, […] ATP. It is filed as biochemical.
JAK1, sequence (P23458 whole entry): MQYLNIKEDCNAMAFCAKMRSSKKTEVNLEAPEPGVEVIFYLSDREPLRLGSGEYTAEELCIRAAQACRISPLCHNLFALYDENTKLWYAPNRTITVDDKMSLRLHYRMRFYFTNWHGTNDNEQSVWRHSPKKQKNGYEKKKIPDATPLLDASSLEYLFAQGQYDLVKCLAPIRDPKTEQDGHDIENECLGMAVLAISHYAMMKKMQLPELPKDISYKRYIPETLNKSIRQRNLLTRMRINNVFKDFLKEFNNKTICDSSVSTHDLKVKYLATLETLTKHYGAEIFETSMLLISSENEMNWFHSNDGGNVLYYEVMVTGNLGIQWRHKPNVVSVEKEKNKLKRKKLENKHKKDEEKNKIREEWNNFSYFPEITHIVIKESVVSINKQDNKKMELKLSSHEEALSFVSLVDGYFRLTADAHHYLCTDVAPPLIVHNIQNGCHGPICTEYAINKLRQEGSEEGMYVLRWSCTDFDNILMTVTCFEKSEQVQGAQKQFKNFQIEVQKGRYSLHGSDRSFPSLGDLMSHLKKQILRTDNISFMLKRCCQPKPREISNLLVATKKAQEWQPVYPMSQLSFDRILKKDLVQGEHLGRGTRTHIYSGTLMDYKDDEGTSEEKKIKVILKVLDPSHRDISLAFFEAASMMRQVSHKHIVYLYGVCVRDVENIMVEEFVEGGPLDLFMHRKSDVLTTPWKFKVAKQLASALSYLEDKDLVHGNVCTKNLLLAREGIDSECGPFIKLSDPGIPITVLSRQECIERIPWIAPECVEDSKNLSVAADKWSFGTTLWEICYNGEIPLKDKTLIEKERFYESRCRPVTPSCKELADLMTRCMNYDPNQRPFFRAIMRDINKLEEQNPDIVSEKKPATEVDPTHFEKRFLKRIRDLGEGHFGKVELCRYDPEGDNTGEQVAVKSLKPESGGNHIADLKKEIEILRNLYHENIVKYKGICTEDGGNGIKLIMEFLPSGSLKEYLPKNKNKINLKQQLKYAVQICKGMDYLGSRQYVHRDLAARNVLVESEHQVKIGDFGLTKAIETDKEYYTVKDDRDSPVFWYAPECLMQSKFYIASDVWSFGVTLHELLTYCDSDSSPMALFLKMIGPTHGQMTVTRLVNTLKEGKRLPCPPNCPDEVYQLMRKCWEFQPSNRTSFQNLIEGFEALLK

As usually defined, the Km is the concentration of substrate that gives half-maximal velocity. Usually IC50 stands for the midpoint of a concentration-inhibition curve. A low value points to greater potency. As a reminder, the Ki is a dissociation constant, usually derived from enzyme kinetics or from competition with a known ligand. Low values mean a stronger hold on the target, high ones a looser hold on the target.

Turning to `Nc1ncnc2c1ncn2[C@@H]1O[C@H](COP(=O)(O)OP(=O)(O)OP(=O)(O)O)[C@@H](O)[C@H]1O` [ATP], the Km in test [1] is 212 ± 25.7 µM.

As for `CN[C@@H]1C[C@H]2O[C@@](C)([C@@H]1OC)n1c3ccccc3c3c4c(c5c6ccccc6n2c5c31)C(=O)NC4` [staurosporine], the “KinaseProfiler kinase assay, positive control” value in test [2] is “Staurosporine was used as a positive control for ATP‐competitive inhibition of JAKs”.

Consider `CC[C@H]1CN2CCc3cc(OC)c(OC)cc3[C@@H]2C[C@@H]1C[C@H]1NCCc2c1[nH]c1ccc(O)cc21` [tubulosine], for which the half-inhibitory concentration (IC50) was 76.3 nM in test [3], 84.9 nM in test [5] and 69.5 nM in test [6]. In test [4], this molecule yielded a Ki of 12.9 ± 1.3 nM.
